# Assay results reported in ChEMBL document CHEMBL1127540, “Three-dimensional pharmacophores from binding data” (J Med Chem, 1994).
# Starred links: 1 amine or outer side, 2 acyl side, 3 side chain; linkers in the order of their positions; H or OH if unused. Non-standard residues stand in square brackets, D forms with d. Residues, ends and D or L forms follow the SMILES beside them. *: point of attachment. Hexanoyl(5S-NH,4S-OH,6-Ph) = O=C(CC[C@H](O)[C@H](Cc1ccccc1)N[*:1])[*:2]; PheΨ(PO2HCH2)Gly = O=C(CCP(=O)(O)[C@H](Cc1ccccc1)N[*:1])[*:2]; X5 = O=C([C@H]1CCCN1C[C@H](O)[C@H](Cc1ccccc1)N[*:1])[*:2]; Ahppa(3S,4S) = O=C(C[C@H](O)[C@H](Cc1ccccc1)N[*:1])[*:2]; X2 = CC(C)C[C@H](N[*:1])[C@@H](O)CN1CCC[C@@H]1C(=O)[*:2]; X1 = O=C(C[C@H](O)[C@H](Cc1ccc(O)cc1)N[*:1])[*:2]; X4 = O=C([C@H](Cc1ccccc1)N[*:1])C(F)(F)C(=O)[*:2]; X8 = O=C([C@H]1CCCN1C[C@H](Cc1ccccc1)N[*:1])[*:2]; X6 = O=C(CC[C@@H](O)[C@H](Cc1ccccc1)N[*:1])[*:2]; X9 = O=C(CP(=O)(O)[C@H](Cc1ccccc1)N[*:1])[*:2]; X7 = NC(=O)C[C@H](N[*:1])[C@@H](O)CC(=O)[*:2]; Cbz = O=C(OCc1ccccc1)*; Boc = CC(C)(C)OC(=O)*
# Target: Human immunodeficiency virus type 1 protease (Human immunodeficiency virus 1, UniProt Q72874)
# Assay: Binding affinity to HIV-1 protease
row,Compound,Ki [nM]
1,CC[C@H](C)[C@H](NC(=O)[C@H]1CCCN1C[C@H](O)[C@H](Cc1ccccc1)NC(=O)[C@H](CC(N)=O)NC(=O)[C@H](CC(C)C)NC(=O)[C@H](CO)NC(C)=O)C(=O)N[C@H](C(=O)OC)C(C)C (Ac-SLN[X5]IV-OMe),0.24
2,"COC(=O)[C@@H](NC(=O)[C@@H](NC(=O)CC[C@H](O)[C@H](Cc1ccccc1)NC(=O)[C@H](C)NC(=O)[C@H](C)NC(=O)[C@@H](N)CO)C(C)C)C(C)C (H-SAA[Hexanoyl(5S-NH,4S-OH,6-Ph)]VV-OMe)",61.7
3,CC(=O)N[C@H](C(=O)C[C@@H](Cc1ccccc1)[C@H](O)[C@H](Cc1ccccc1)NC(=O)[C@@H](NC(C)=O)C(C)C)C(C)C,12
4,CC[C@H](C)[C@H](NC(=O)[C@H](C(C)C)[C@@H](O)[C@H](O)[C@H](CC(C)C)NC(=O)[C@H](Cc1c[nH]cn1)NC(=O)[C@H](Cc1ccccc1)NC(=O)OC(C)(C)C)C(=O)NCc1ccccn1,28.2
5,CC(C)(C)OC(=O)N[C@@H](Cc1ccccc1)[C@H](O)[C@H](O)[C@H](Cc1ccccc1)NC(=O)OC(C)(C)C,12
6,CC(C)[C@H](NC(=O)NCc1ccccn1)C(=O)N[C@@H](Cc1ccccc1)C(=O)C(F)(F)CCc1ccccc1,2.88
7,CC(C)(C)OC(=O)N[C@H](Cc1ccccc1)[C@H](O)CC(=O)N[C@@H](CCC(=O)O)C(=O)N[C@@H](Cc1ccccc1)C(=O)O,3020
8,"CC(C)[C@H](NC(=O)[C@@H](NC(=O)C1CCCN1C[C@H](Cc1ccccc1)NC(=O)[C@H](C)NC(=O)[C@H](C)NC(=O)[C@@H](N)CO)C(C)C)C(N)=O (single isomer, unassigned)",18200
9,"COC(=O)[C@@H](NC(=O)[C@@H](NC(=O)C[C@H](O)[C@H](Cc1ccccc1)NC(=O)[C@H](C)NC(=O)[C@H](C)NC(=O)[C@H](CO)NC(=O)OC(C)(C)C)C(C)C)C(C)C (Boc-SAA[Ahppa(3S,4S)]VV-OMe)",1200
10,CC(C)(C)OC(=O)N[C@@H](Cc1ccccc1)[C@@H](O)C(=O)N[C@@H](CCC(=O)O)C(=O)N[C@@H](Cc1ccccc1)C(=O)O (stereo in doubt; 72),17000
11,CC[C@H](C)[C@H](NC(=O)[C@@H]1CCCN1C[C@@H](CC(=O)[C@H](CC(N)=O)NC(=O)[C@H](CCC(N)=O)NC(=O)[C@H](CO)NC(=O)[C@@H](N)C(C)C)Cc1ccccc1)C(=O)N[C@H](C(=O)O)C(C)C,3550
12,CC[C@H](C)[C@H](NC(=O)[C@H]1CCCN1C[C@H](O)[C@H](CC(C)C)NC(=O)[C@H](CC(N)=O)NC(=O)[C@H](CC(C)C)NC(C)=O)C(=O)N[C@H](C(=O)OC)C(C)C (Ac-LN[X2]IV-OMe),20.9
13,CCC(C)CNC(=O)[C@H](C(C)C)[C@@H](O)[C@H](O)[C@H](CC(C)C)NC(=O)[C@H](Cc1c[nH]cn1)NC(=O)[C@H](Cc1ccccc1)NC(=O)OC(C)(C)C (some centres undefined),363
14,CC[C@H](C)[C@H](NC(=O)[C@H](C(C)C)[C@H](O)[C@H](O)[C@H](CC(C)C)NC(=O)[C@H](Cc1c[nH]cn1)NC(=O)[C@H](Cc1ccccc1)NC(=O)OC(C)(C)C)C(=O)NCc1ccccn1,501
15,COC(=O)[C@@H](NC(=O)[C@@H](NC(=O)CCP(=O)(O)[C@H](Cc1ccccc1)NC(=O)[C@H](C)NC(=O)[C@H](C)NC(=O)[C@@H](N)CO)C(C)C)C(C)C (H-SAA[PheΨ(PO2HCH2)Gly]VV-OMe),4370
16,CC(C)(C)OC(=O)N[C@H](Cc1ccccc1)[C@@H](O)CC(=O)N[C@@H](CCC(=O)O)C(=O)N[C@@H](Cc1ccccc1)C(=O)O,7080
17,COC(=O)[C@@H](NC(=O)[C@@H](NC(=O)C[C@H](O)[C@H](Cc1ccc(O)cc1)NC(=O)[C@H](C)NC(=O)[C@H](C)NC(=O)[C@@H](N)CO)C(C)C)C(C)C (H-SAA[X1]VV-OMe),79.4
18,CC(C)(C)OC(=O)N[C@@H](Cc1ccccc1)[C@@H](O)C(=O)N[C@@H](CCC(=O)O)C(=O)N[C@@H](Cc1ccccc1)C(=O)O (stereo in doubt; 76),24000
19,CC[C@H](C)[C@H](NC(=O)[C@H](Cc1ccccc1)NC(=O)C[C@H](O)[C@H](Cc1ccccc1)NC(=O)OC(C)(C)C)C(=O)N[C@@H](Cc1ccccc1)C(=O)OC,0.603
20,CC(C)[C@H](NC(=O)OCc1ccccn1)C(=O)N[C@@H](Cc1ccccc1)C(=O)C(F)(F)CCc1ccccc1,2.19
21,CC(C)[C@H](NC(=O)OCc1ccccc1)C(=O)N[C@@H](Cc1ccccc1)[C@H](O)[C@H](O)[C@H](Cc1ccccc1)NC(=O)[C@@H](NC(=O)OCc1ccccc1)C(C)C,0.219
22,CC(C)(C)OC(=O)N[C@@H](Cc1ccccc1)[C@@H](O)[C@H](O)[C@H](Cc1ccccc1)NC(=O)OC(C)(C)C,39.8
23,CC[C@H](C)[C@H](NC(=O)[C@H](C(C)C)[C@@H](O)[C@H](O)[C@H](CC(C)C)NC(=O)OCc1ccccc1)C(=O)NCc1ccccn1,5.01
24,"COC(=O)[C@@H](NC(=O)[C@@H](NC(=O)C[C@H](O)[C@H](Cc1ccccc1)NC(=O)[C@H](C)NC(=O)[C@H](C)NC(=O)[C@@H](N)CO)C(C)C)C(C)C (H-SAA[Ahppa(3S,4S)]VV-OMe)",813
25,CC(C)[C@H](NC(=O)CNC(=O)OCc1ccccc1)C(=O)N[C@@H](Cc1ccccc1)C(=O)C(F)(F)CCc1ccccc1,1

row,Compound,Ki [nM]
1,CC(C)(C)OC(=O)N[C@@H](Cc1ccccc1)[C@H](O)CC(=O)N[C@@H](CCC(=O)O)C(=O)N[C@@H](Cc1ccccc1)C(=O)O,3980
2,CC(=O)N[C@H](C(=O)N[C@H](C(=O)C[C@@H](Cc1ccccc1)[C@H](O)[C@H](Cc1ccccc1)NC(=O)[C@@H](NC(=O)[C@@H](NC(C)=O)C(C)C)C(C)C)C(C)C)C(C)C,10
3,COC(=O)[C@@H](NC(=O)[C@@H](NC(=O)CP(=O)(O)[C@H](Cc1ccccc1)NC(=O)[C@H](C)NC(=O)[C@H](C)NC(=O)[C@@H](N)CO)C(C)C)C(C)C (H-SAA[X9]VV-OMe),4470
4,COC(=O)[C@@H](NC(=O)[C@@H](NC(=O)C[C@H](O)[C@H](Cc1ccc(O)cc1)NC(=O)[C@H](C)NC(=O)[C@H](C)NC(=O)[C@H](CO)NC(=O)OC(C)(C)C)C(C)C)C(C)C (Boc-SAA[X1]VV-OMe),182
5,CC(C)(C)OC(=O)N[C@@H](Cc1ccccc1)[C@@H](O)CC(Cc1ccc(OCC(=O)O)cc1)C(=O)N[C@@H]1c2ccccc2C[C@H]1O (some centres undefined),0.339
6,CC(=O)N[C@@H](CO)C(=O)N[C@@H](C)C(=O)N[C@@H](C)C(=O)N[C@@H](Cc1ccccc1)CN1CCC[C@@H]1C(=O)N[C@H](C(=O)N[C@H](C(N)=O)C(C)C)C(C)C (Ac-SAA[X8]VV-NH2),38000
7,CC(C)[C@H](NC(=O)OCc1ccccc1)C(=O)N[C@@H](Cc1ccccc1)[C@H](O)[C@@H](O)[C@H](Cc1ccccc1)NC(=O)[C@@H](NC(=O)OCc1ccccc1)C(C)C,0.38
8,CC(C)[C@H](NC(=O)OCc1ccccc1)C(=O)N[C@@H](Cc1ccccc1)C(=O)C(F)(F)CCc1ccccc1 (stereo in doubt; 12),2.69
9,CC(C)[C@H](NC(=O)OCc1ccccc1)C(=O)N[C@@H](Cc1ccccc1)C(=O)C(F)(F)CCc1ccccn1,1.41
10,CC(C)[C@H](NC(=O)OCc1ccccc1)C(=O)N[C@@H](Cc1ccccc1)[C@@H](O)[C@@H](CC(=O)[C@H](NC(=O)OCc1ccccc1)C(C)C)Cc1ccccc1,3.72
11,COC(=O)[C@@H](NC(=O)[C@@H](NC(=O)C(F)(F)C(=O)[C@H](Cc1ccccc1)NC(=O)[C@H](C)NC(=O)[C@H](C)NC(=O)[C@H](CO)NC(=O)OC(C)(C)C)C(C)C)C(C)C (Boc-SAA[X4]VV-OMe),158
12,CC(C)(C)OC(=O)N[C@@H](Cc1ccccc1)[C@H](O)[C@@H](O)[C@H](Cc1ccccc1)NC(=O)OC(C)(C)C,282
13,"COC(=O)[C@@H](NC(=O)[C@@H](NC(=O)CC[C@H](O)[C@H](Cc1ccccc1)NC(=O)[C@H](Cc1ccccc1)NC(=O)[C@H](C)NC(=O)[C@H](C)NC(=O)OCc1ccccc1)C(C)C)C(C)C (Cbz-AAF[Hexanoyl(5S-NH,4S-OH,6-Ph)]VV-OMe)",47.9
14,CC(C)(C)OC(=O)N[C@@H](Cc1ccccc1)[C@@H](O)CC(=O)N[C@@H](CCC(=O)O)C(=O)N[C@@H](Cc1ccccc1)C(=O)O,63.1
15,CC[C@H](C)[C@H](NC(=O)C[C@H](O)[C@H](CC(N)=O)NC(=O)[C@H](CCC(N)=O)NC(=O)[C@H](CO)NC(=O)[C@@H](N)C(C)C)C(=O)N[C@H](C(=O)O)C(C)C (H-VSQ[X7]IV-OH),3720
16,CC[C@H](C)[C@H](NC(=O)[C@H]1CCCN1C(=O)[C@H](CO)NC(=O)[C@@H](NC(=O)[C@@H]1CCCN1C(=O)[C@H](Cc1ccccc1)NC(=O)[C@H](CC(N)=O)NC(=O)[C@H](CC(C)C)NC(=O)[C@@H](NC(=O)[C@@H](N)CS)[C@@H](C)O)[C@@H](C)CC)C(=O)O,70.8
17,CC(C)CC(=O)N[C@H](C(=O)N[C@H](C(=O)N[C@@H](CC(C)C)[C@@H](O)CC(=O)N[C@@H](C)C(=O)N[C@@H](CC(C)C)[C@@H](O)CC(=O)O)C(C)C)C(C)C [PEPSTATIN],17
18,COC(=O)[C@@H](NC(=O)[C@@H](NC(=O)CC[C@@H](O)[C@H](Cc1ccccc1)NC(=O)[C@H](C)NC(=O)[C@H](C)NC(=O)[C@@H](N)CO)C(C)C)C(C)C (H-SAA[X6]VV-OMe),4900
19,CC[C@H](C)[C@H](NC(=O)OCc1ccccc1)C(=O)N[C@@H](Cc1ccccc1)[C@@H](O)[C@@H](CC(=O)[C@H](NC(=O)OCc1ccccc1)[C@@H](C)CC)Cc1ccccc1,4.9
20,CC[C@H](C)[C@H](NC(=O)[C@@H](C[C@H](O)[C@H](CC(C)C)NC(=O)[C@H](Cc1c[nH]cn1)NC(=O)[C@H](Cc1ccccc1)NC(=O)[C@H]1CCCN1C(=O)[C@H](Cc1c[nH]cn1)NC(=O)OC(C)(C)C)C(C)C)C(=O)N[C@@H](Cc1c[nH]cn1)C(=O)O,8.71
21,CC(=O)N[C@@H](CO)C(=O)N[C@@H](CCC(N)=O)C(=O)N[C@@H](CC(N)=O)C(=O)N[C@@H](Cc1ccccc1)CN1CCC[C@@H]1C(=O)N[C@H](C(=O)N[C@H](C(N)=O)C(C)C)C(C)C (stereo in doubt; 70),12900
22,CC[C@H](C)[C@H](NC(=O)[C@H]1CCCN1C[C@H](O)[C@H](Cc1ccccc1)NC(=O)[C@H](CC(N)=O)NC(=O)[C@H](CC(C)C)NC(=O)[C@H](CO)NC(C)=O)C(=O)OC (Ac-SLN[X5]I-OMe),417
23,CC[C@H](C)[C@H](NC(=O)[C@@H](C[C@H](O)C(CC1CCCCC1)NC(=O)[C@@H](N)C(C)C)C(C)C)C(=O)NCc1ccccn1 (some centres undefined),70.8
24,CC(C)[C@H](NC(=O)OCc1ccccc1)C(=O)N[C@@H](Cc1ccccc1)[C@@H](O)[C@H](O)[C@H](Cc1ccccc1)NC(=O)OCc1ccccc1,0.219
